Activity calls are given as the source filed them. Unless noted, the rule behind the calls is not given here.

For test [1], the target named is T1, Nucleoside diphosphate phosphatase ENTPD5 (Homo sapiens) (UniProt O75356).
T1 sequence (whole entry): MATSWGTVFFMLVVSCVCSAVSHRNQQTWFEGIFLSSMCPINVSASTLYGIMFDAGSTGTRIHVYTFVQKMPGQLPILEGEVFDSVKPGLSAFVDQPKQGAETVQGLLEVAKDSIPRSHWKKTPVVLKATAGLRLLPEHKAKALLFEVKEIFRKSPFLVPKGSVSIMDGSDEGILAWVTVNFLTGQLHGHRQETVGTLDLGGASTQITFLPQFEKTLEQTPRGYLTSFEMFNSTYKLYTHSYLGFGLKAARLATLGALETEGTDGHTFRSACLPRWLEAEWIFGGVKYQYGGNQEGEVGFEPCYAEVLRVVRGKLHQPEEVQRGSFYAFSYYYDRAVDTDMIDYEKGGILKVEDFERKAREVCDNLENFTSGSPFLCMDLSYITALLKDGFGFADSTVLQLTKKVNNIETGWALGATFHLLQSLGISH
The test is described as follows: Inhibition of human recombinant ENTPD5 expressed in insect cells assessed as reduction in UDP hydrolysis at 1 uM incubated for 1 hr in presence of UMP, GTP and ATP by Escherichia coli UMP kinase pyrH catalyzed UMP phosphorylation coupled luciferase assay.

Test [2] deals with T2, Ectonucleoside triphosphate diphosphohydrolase 5 (Mus musculus) (UniProt Q9WUZ9).
T2 sequence (whole entry): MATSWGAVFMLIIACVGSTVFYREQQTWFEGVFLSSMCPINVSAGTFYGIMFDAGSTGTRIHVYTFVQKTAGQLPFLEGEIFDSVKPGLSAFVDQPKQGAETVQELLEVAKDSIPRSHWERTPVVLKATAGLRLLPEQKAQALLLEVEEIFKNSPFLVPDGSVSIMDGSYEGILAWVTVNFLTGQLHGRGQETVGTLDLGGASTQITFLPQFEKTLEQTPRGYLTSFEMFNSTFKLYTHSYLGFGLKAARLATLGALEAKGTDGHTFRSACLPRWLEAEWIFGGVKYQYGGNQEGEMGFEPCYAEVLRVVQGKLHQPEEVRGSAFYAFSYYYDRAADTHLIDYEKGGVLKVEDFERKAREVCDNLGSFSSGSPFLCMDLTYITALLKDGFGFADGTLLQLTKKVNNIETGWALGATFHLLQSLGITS
Description: Inhibition of ENTPD5 in PTEN knockout mouse MEF cells assessed as induction of ER stress by measuring increase in GRP78/BiP expression at 30 uM incubated for 24 hrs by Western blotting analysis. The format is cell-based.

For test [3], the target named is T1, Nucleoside diphosphate phosphatase ENTPD5 (Homo sapiens). The test is described as follows: Inhibition of human recombinant ENTPD5 expressed in insect cells assessed as reduction in reduction in UDP hydrolysis by measuring inorganic phosphate release incubated for 1 hr by malachite green based assay.
The test system of test [4] is LNCaP. The test is described as follows: Antitumor activity against human LNCAP cells xenografted in mouse assessed as reduction in cells left in matrigels at 1 to 100 mg/kg, ip dosed every other day and measured after 6 weeks by hematoxylin and eosin staining based microscopy. It counts as functional, organism-based.
For test [5], the system named is LNCaP. Description: Antitumor activity against human LNCAP cells xenografted in mouse assessed as induction of tumor shrinkage at 1 to 100 mg/kg, ip dosed every other day and measured after 6 weeks by microscopy. The format is functional, organism-based.
For test [6], the target named is T1, Nucleoside diphosphate phosphatase ENTPD5 (Homo sapiens). The test is described as follows: Inhibition of human recombinant ENTPD5 expressed in insect cells assessed as reduction in UDP hydrolysis up to 10 uM incubated for 1 hr in presence of UMP, GTP and ATP by Escherichia coli UMP kinase pyrH catalyzed UMP phosphorylation coupled luciferase assay.
In test [7] the target is T3, Uridylate kinase (Escherichia coli (strain K12)) (UniProt P0A7E9).
T3 sequence (whole entry): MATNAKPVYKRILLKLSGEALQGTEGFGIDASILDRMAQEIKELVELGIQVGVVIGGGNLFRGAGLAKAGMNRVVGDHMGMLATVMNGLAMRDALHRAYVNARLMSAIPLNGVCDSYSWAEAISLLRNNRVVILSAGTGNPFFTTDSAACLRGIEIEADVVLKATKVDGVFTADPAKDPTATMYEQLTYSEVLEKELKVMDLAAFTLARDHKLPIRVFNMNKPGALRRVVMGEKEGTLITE
The test is described as follows: Inhibition of recombinant Escherichia coli UMP kinase pyrH catalyzed UMP phosphorylation in presence of GTP and ATP incubated for 1 hr by luminescence based assay.

With `CCOC(=O)c1ccc(-c2ccc(/C=C3/C(=O)NC(=O)N(Cc4ccco4)C3=O)o2)cc1`, the inhibition entry in test [1], in test [2] and in test [3] was “Active” each time. Besides, the outcome with LNCaP [4] and in the test with LNCaP [5] was Active. Besides, the inhibition result in test [6] was “Dose-dependent effect”. The inhibition result in test [7] was “inactive”.

For `O=C(Nc1ccccc1)NC(N1CCOCC1)C(Cl)(Cl)Cl` (stereo unspecified), the inhibition entry in test [1], in test [2] and in test [3] was “Active” throughout. Further, the result in the test with LNCaP [4] and in the test on LNCaP [5] was Active. The inhibition result in test [6] is “Dose-dependent effect”. Moreover, the inhibition entry in test [7] was “inactive”.

Consider `Cc1ccc2nc(Nc3nc(O)c(CCC(C)C)c(=O)[nH]3)nc(C)c2c1`, for which the inhibition entry in test [1], in test [2] and in test [3] was “Active” throughout. Further, the result with LNCaP [4] and with LNCaP [5] was Active. Moreover, in test [6], the inhibition result is “Dose-dependent effect”. Moreover, the inhibition entry in test [7] is “inactive”.

Consider `O=C1/C(=C/c2ccco2)C(=O)N(c2ccc(Br)cc2)C(=S)N1c1ccccc1`, for which the inhibition result in test [1], in test [2] and in test [3] was “Active” throughout. Moreover, the result in the test on LNCaP [4] and with LNCaP [5] was Active. For the same molecule, the inhibition result in test [6] was “Dose-dependent effect”. Also, the inhibition entry in test [7] was “inactive”.

Take `Cc1cc(I)cc2c1NC(c1ccc([N+](=O)[O-])cc1)C1CC=CC21` (stereo unspecified): the inhibition result in test [1], in test [2] and in test [3] was “Active” in each case. Further, the result in the test on LNCaP [4] and in the test on LNCaP [5] was Active. For the same molecule, in test [6], the inhibition result was “Dose-dependent effect”. In addition, in test [7], the inhibition entry is “inactive”.

Turning to `O=C1NC(=S)N(c2ccccc2)C(=O)/C1=C/c1ccc(-c2cc([N+](=O)[O-])ccc2Cl)o1`, the inhibition result in test [1], in test [2] and in test [3] was “Active” each time. Moreover, the outcome in the test on LNCaP [4] and in the test on LNCaP [5] was Active. Further, the inhibition entry in test [6] was “Dose-dependent effect”. Moreover, the inhibition result in test [7] is “inactive”.

On to `COc1ccccc1/C=N\NC(=O)c1cc2c(C)nn(-c3ccccc3)c2s1`, for which the inhibition entry in test [1], in test [2] and in test [3] was “Active” throughout. Besides, the outcome with LNCaP [4] and in the test with LNCaP [5] was Active. Besides, in test [6], the inhibition result is “Dose-dependent effect”. Also, the inhibition entry in test [7] is “inactive”.

For the molecule `S=C(Nc1ccc2nc(-c3ccco3)c(-c3ccco3)nc2c1)N1CCCC1`, the inhibition result in test [1], in test [2] and in test [3] was “Active” throughout. Further, the result in the test on LNCaP [4] and with LNCaP [5] was Active. Moreover, in test [6], the inhibition entry is “Dose-dependent effect”. The inhibition result in test [7] was “inactive”.

For the molecule `O=C1NC(=S)NC(=O)C1=Cc1ccc(-c2ccc(Cl)c(Cl)c2)o1`, the inhibition result in test [1], in test [2] and in test [3] was “Active” in each case. Further, the outcome with LNCaP [4] and in the test with LNCaP [5] was Active. Further, the inhibition result in test [6] was “Dose-dependent effect”. For the same molecule, the inhibition entry in test [7] is “inactive”.

In the case of `Cc1cc(/C=C2\C(=O)NC(=S)N(c3ccc(Cl)cc3)C2=O)c(C)n1-c1ccc([N+](=O)[O-])cc1`, the inhibition result in test [1], in test [2] and in test [3] was “Active” in each case. In addition, the result with LNCaP [4] and in the test on LNCaP [5] was Active. Moreover, the inhibition result in test [6] was “Dose-dependent effect”. The inhibition result in test [7] is “inactive”.

For `S=C(Nc1ccc2nc(-c3ccco3)c(-c3ccco3)nc2c1)N1CCCCCC1`, the inhibition entry in test [1], in test [2] and in test [3] was “Active” in each case. Further, the outcome in the test with LNCaP [4] and in the test with LNCaP [5] was Active. Besides, the inhibition result in test [6] was “Dose-dependent effect”. Besides, in test [7], the inhibition entry is “inactive”.

Turning to `O=C1NC(=O)C(=Cc2ccc(-c3ccc(I)cc3)o2)C(=O)N1`, the inhibition entry in test [1], in test [2] and in test [3] was “Active” in each case. The result in the test on LNCaP [4] and in the test on LNCaP [5] was Active. In test [6], the inhibition result was “Dose-dependent effect”. In addition, in test [7], the inhibition result is “inactive”.

Turning to `N#CC1=C(c2ccco2)CC(c2ccccc2)NC1=S` (stereo unspecified), the inhibition result in test [1], in test [2] and in test [3] was “Active” each time. Further, the outcome with LNCaP [4] and with LNCaP [5] was Active. In addition, the inhibition result in test [6] was “Dose-dependent effect”. The inhibition entry in test [7] is “inactive”.

As for `O=C1NC(=S)NC(=O)C1=Cc1ccc(-c2cc(Cl)ccc2Cl)o1`, the inhibition result in test [1], in test [2] and in test [3] was “Active” in each case. Also, the result in the test with LNCaP [4] and in the test on LNCaP [5] was Active. Further, the inhibition entry in test [6] is “Dose-dependent effect”. The inhibition entry in test [7] was “inactive”.

`O=C1NC(=O)N(c2ccc(F)cc2)C(=O)/C1=C/c1ccc(Sc2ccc(Cl)cc2)o1`: the inhibition result in test [1], in test [2] and in test [3] was “Active” throughout. The result in the test with LNCaP [4] and in the test on LNCaP [5] was Active. The inhibition entry in test [6] is “Dose-dependent effect”. Further, in test [7], the inhibition entry was “inactive”.

For the molecule `N=C1S/C(=C\c2ccc(N3CCOCC3)cc2)C(=O)N1c1ccc(Br)cc1`, the inhibition entry in test [1], in test [2] and in test [3] was “Active” in each case. Besides, the result with LNCaP [4] and in the test with LNCaP [5] was Active. Moreover, in test [6], the inhibition result is “Dose-dependent effect”. The inhibition entry in test [7] is “inactive”.

Regarding `O=C1/C(=C/c2ccc(O)c([N+](=O)[O-])c2)SC(=S)N1c1cccc(Cl)c1`, the inhibition entry in test [1], in test [2] and in test [3] was “Active” each time. The outcome in the test with LNCaP [4] and in the test on LNCaP [5] was Active. In test [6], the inhibition result is “Dose-dependent effect”. For the same molecule, the inhibition entry in test [7] was “inactive”.

For the molecule `O=C1NC(=S)N(c2ccc(Cl)cc2)C(=O)/C1=C\c1ccc(-c2ccc([N+](=O)[O-])cc2)o1`, the inhibition result in test [1], in test [2] and in test [3] was “Active” throughout. In addition, the result with LNCaP [4] and in the test on LNCaP [5] was Active. Also, in test [6], the inhibition entry is “Dose-dependent effect”. Also, the inhibition entry in test [7] was “inactive”.

The record behind these values is ChEMBL document CHEMBL4418495, “Entpd5 inhibitors” (2012).
